Reference: US9388112B2, “Bisphenol derivatives and their use as androgen receptor activity modulators” (The University of British Columbia, priority 2010, dated 2016)

molecular target: T1, androgen receptor (AR) (Homo sapiens, UniProt P10275, T878A); test: LNCaP PSA (6.1 kb)-luciferase assay (R1881-induced); format: cell-based; conditions: FIG. 7A, 1 μM to 35 μM
T1 construct: LNCaP cells express endogenous AR; endogenous in cells; host or cells: LNCaP cells
T1 sequence (P10275 1-920 T878A): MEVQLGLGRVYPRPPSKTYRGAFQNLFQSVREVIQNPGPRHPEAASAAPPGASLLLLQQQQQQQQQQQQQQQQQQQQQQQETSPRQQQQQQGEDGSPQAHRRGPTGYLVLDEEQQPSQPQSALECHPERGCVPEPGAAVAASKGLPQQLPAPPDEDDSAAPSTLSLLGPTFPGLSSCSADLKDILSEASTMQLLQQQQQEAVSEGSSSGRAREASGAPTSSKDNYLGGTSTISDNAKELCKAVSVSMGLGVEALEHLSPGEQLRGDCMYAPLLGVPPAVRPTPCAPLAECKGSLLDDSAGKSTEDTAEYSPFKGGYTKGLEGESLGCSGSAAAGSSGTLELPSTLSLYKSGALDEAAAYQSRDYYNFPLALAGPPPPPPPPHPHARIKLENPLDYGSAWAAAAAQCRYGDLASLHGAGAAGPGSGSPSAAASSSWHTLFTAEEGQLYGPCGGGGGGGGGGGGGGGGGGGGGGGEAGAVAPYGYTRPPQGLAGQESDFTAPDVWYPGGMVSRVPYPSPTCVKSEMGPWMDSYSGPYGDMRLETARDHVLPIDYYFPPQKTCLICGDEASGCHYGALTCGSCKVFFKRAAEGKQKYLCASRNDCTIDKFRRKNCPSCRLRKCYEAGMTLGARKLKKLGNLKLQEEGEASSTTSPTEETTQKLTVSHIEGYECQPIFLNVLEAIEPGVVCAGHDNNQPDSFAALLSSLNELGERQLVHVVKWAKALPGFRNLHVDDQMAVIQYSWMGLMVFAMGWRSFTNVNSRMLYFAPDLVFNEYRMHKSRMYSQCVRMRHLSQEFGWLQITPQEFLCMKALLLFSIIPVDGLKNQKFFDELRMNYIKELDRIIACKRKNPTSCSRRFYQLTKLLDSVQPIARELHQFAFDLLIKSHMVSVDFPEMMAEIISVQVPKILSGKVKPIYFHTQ
From the text: LNCaP cells were employed initially for all experiments because they are well-differentiated human prostate cancer cells in which ligand-independent activation of the AR by FSK has been characterized (Nazareth et al 1996 J. Biol. Chem. 271, 19900-19907; and Sadar 1999 J. Biol. Chem. 274, 7777-7783). LNCaP cells express endogenous AR and secrete prostate-specific antigen (PSA) (Horoszewicz et al 1983 Cancer Res. 43, 1809-1818). LNCaP cells can be grown either as monolayers in cell culture or as tumors in the well-characterized xenograft model that progresses to androgen independence in castrated hosts (Sato et al 1996 J. Steroid Biochem. Mol. Biol. 58, 139-146; Gleave et al 1991 Cancer Res. 51, 3753-3761; Sato et al 1997 Cancer Res. 57, 1584-1589; and Sadar et al 2002 Mol. Cancer Ther. 1(8), 629-637). […] Small molecules that specifically target the AR-NTD should have no effect on PC3 cells. This means that they should not alter the proliferation of PC3 cells if they specifically block the AR to mediate their inhibitory effects. R1881 was employed since it is stable and avoids problems associated with the labile physiological ligand dihydrotestosterone (DHT). Reporter specificity may be determined using several alternative reporter gene constructs. Some well characterized ARE-driven reporter gene constructs that have been used extensively are the PSA (6.1 kb) enhance/promoter which contains several AREs and is highly inducible by androgens as well as by FSK (Ueda et al 2002 A J. Biol. Chem. 277, 7076-7085) and the ARR3-thymidine kinase (tk)-luciferase, which is an artificial reporter construct that contains three tandem repeats of the rat probasin ARE1 and ARE2 regions upstream of a luciferase reporter (Snoek et al 1996 J. Steroid Biochem. Mol. Biol. 59, 243-250).
LNCaP cells were transiently cotransfected with PSA (6.1 kb)-luciferase (0.25 μg/well) in 24-well plates for 24 h prior to pre-treatment with compounds for 1 hour before the addition of synthetic androgen, R1881 (1 nM) to induce PSA production or vehicle. The total amount of plasmid DNA transfected was normalized to 0.75 μg/well by the addition of the empty vector. After 48 h of incubation with R1881, the cells were harvested, and relative luciferase activity was determined. Test compounds were added to the cells at various concentrations and activity for each treatment was normalized to the predicted maximal activity induction (in the absence of test compounds, vehicle only). Plotting of sigmoidal curves (Boltzmann Function) and IC50 calculations were done using OriginPro 8.1 Sofware (Northampton, Mass., USA).
Using the LNCaP PSA (6.1 kb)-luciferase assay described above, various compounds described herein were tested against DMSO and EPI-001 controls. In FIG. 1, a comparison is made between EPI-035 and DMSO and EPI-001 or EPI-026 from 1 μM to 10 μM. […] In FIGS. 3A and 3B, EPI-040 and EPI-051 are compared to DMSO and EPI-001 at 1 μM to 30 μM and 2.5 μM to 35 μM respectively. In FIGS. 4A and 4B, EPI-043 is compared to DMSO and EPI-001 at 5 μM to 35 μM 0.25 μM to 25 μM respectively.
Similarly, in FIG. 7B concentrations of EPI-6000, EPI-6001, EPI-6002, and EPI-6003 are shown at 12.5 μM and 25 μM as compared to the DMSO control.

**Q.** For `OC(CCl)COc1ccccc1Cc1ccccc1OCC(O)CCl` (stereo not drawn) [EPI-900], which “dose response as compared to the DMSO control” value is on record?
**A.** showed a dose response

same assay, conditions: LNCaP PSA (6.1 kb)-luciferase assay, versus DMSO and EPI-001 controls

**Q.** Which “androgen receptor modulating activity” value does the source give for `CC(C)(c1ccc(OCCO)cc1)c1ccc(OCCCCl)cc1` [EPI-035] here?
**A.** showed androgen receptor modulating activity

**Q.** With `CC(=O)OCCOc1ccc(C(C)(C)c2ccc(OCCCCl)cc2)cc1` [EPI-037] as the compound, how does the “androgen receptor modulating activity” value read?
**A.** showed androgen receptor modulating activity

**Q.** `CC(C)(c1ccc(OCCCCl)cc1)c1ccc(OCCCCl)cc1` [EPI-038] was tested. Which “androgen receptor modulating activity” value did it give?
**A.** showed androgen receptor modulating activity

**Q.** For `CC(C)(c1ccc(O)cc1)c1ccc(OCCOCCOCCO)cc1` [EPI-040], which “androgen receptor modulating activity” value is on record?
**A.** showed androgen receptor modulating activity

**Q.** With `CC(C)(c1ccc(OCCCCCCCl)cc1)c1ccc(OCCOCCOCCO)cc1` [EPI-043] as the compound, how does the “androgen receptor modulating activity” value read?
**A.** showed androgen receptor modulating activity

**Q.** With `C#CCOc1ccc(C(C)(C)c2ccc(OC[C@@H](O)CCl)cc2)cc1` [EPI-046] as the compound, how does the “androgen receptor modulating activity” value read?
**A.** showed androgen receptor modulating activity

**Q.** `C#CCOc1ccc(C(C)(C)c2ccc(OC[C@H](O)CCl)cc2)cc1` [EPI-047] was tested. Which “androgen receptor modulating activity” value did it give?
**A.** showed androgen receptor modulating activity

**Q.** `C#CCOc1ccc(C(C)(C)c2ccc(OCC(O)CO)cc2)cc1` (stereo not drawn) [EPI-051] was tested. Which “androgen receptor modulating activity” value did it give?
**A.** showed androgen receptor modulating activity

**Q.** Which “androgen receptor modulating activity” value does the source give for `OC(CCl)COc1ccccc1Cc1ccccc1OCC(O)CCl` (stereo not drawn) [EPI-900] here?
**A.** showed androgen receptor modulating activity

**Q.** With `CC(C)(c1ccc(OCC(O)CCl)cc1)c1ccccc1OCC(O)CO` (stereo not drawn) [EPI-6000] as the compound, how does the “androgen receptor modulating activity” value read?
**A.** showed androgen receptor modulating activity

**Q.** How did the “androgen receptor modulating activity” value turn out when `CC(C)(c1ccc(OCC(O)CCl)cc1)c1ccccc1OCC(O)CO` (stereo not drawn) [EPI-6001] was run?
**A.** showed androgen receptor modulating activity

**Q.** With `CC(C)(c1ccc(OCC(O)CCl)cc1)c1ccccc1OCC(O)CO` (stereo not drawn) [EPI-6002] as the compound, how does the “androgen receptor modulating activity” value read?
**A.** showed androgen receptor modulating activity

**Q.** Which “androgen receptor modulating activity” value does the source give for `CC(C)(c1ccc(OCC(O)CCl)cc1)c1ccccc1OCC(O)CO` (stereo not drawn) [EPI-6003] here?
**A.** showed androgen receptor modulating activity

same assay, conditions: LNCaP cells transfected with PSA (6.1 kb)-luciferase, 1 h pre-treatment, R1881 1 nM, 48 h

**Q.** For `CC(C)(c1ccc(OCCO)cc1)c1ccc(OCCCCl)cc1` [drawing 869], which “EXPERIMENTAL DATA (activity in the described assays)” value (“EXPERIMENTAL DATA” below) is on record?
**A.** Active

**Q.** How did the “EXPERIMENTAL DATA” value turn out when `CC(=O)OCCOc1ccc(C(C)(C)c2ccc(OCCCCl)cc2)cc1` [drawing 870] was run?
**A.** Active

**Q.** With `CC(C)(c1ccc(OCCCCl)cc1)c1ccc(OCCCCl)cc1` [drawing 871] as the compound, how does the “EXPERIMENTAL DATA” value read?
**A.** Active

**Q.** Which “EXPERIMENTAL DATA” value does the source give for `CC(C)(c1ccc(OCCCCCCCl)cc1)c1ccc(OCCOCCOCCO)cc1` [drawing 874] here?
**A.** Active

**Q.** `C#CCOc1ccc(C(C)(C)c2ccc(OC[C@@H](O)CCl)cc2)cc1` [drawing 875] was tested. Which “EXPERIMENTAL DATA” value did it give?
**A.** Active

**Q.** How did the “EXPERIMENTAL DATA” value turn out when `C#CCOc1ccc(C(C)(C)c2ccc(OC[C@H](O)CCl)cc2)cc1` [drawing 876] was run?
**A.** Active

**Q.** How did the “EXPERIMENTAL DATA” value turn out when `C#CCOc1ccc(C(C)(C)c2ccc(OCC(O)CO)cc2)cc1` (centres unmarked) [drawing 877] was run?
**A.** Active

**Q.** With `OC(CCl)COc1ccccc1Cc1ccccc1OCC(O)CCl` (centres unmarked) [drawing 878] as the compound, how does the “EXPERIMENTAL DATA” value read?
**A.** Active

**Q.** With `CC(C)(c1ccc(OCC(O)CCl)cc1)c1ccccc1OCC(O)CO` (centres unmarked) [drawing 879] as the compound, how does the “EXPERIMENTAL DATA” value read?
**A.** Active
